Patent publication US20250222045A1, “BIFIDOBACTERIUM LONGUM SUBSP. INFANTIS, MICROBIAL AGENT AND USE THEREOF” (GUANGZHOU JIYAN COSMETICS TECHNOLOGY CO., LTD., priority 2024, published 2025)

How the values were obtained:
[1] = test system: suckling pig skin; assay: Exfoliation on excised suckling pig skin (Franz cell), total protein of detached keratinocytes; conditions: 50 μL, 24 h, 32 °C
Description: <1> Formulation of cleaning solution (0.1% Triton X-100): 0.1 mL of Triton X-100 was weighed and dissolved in 100 mL of PBS to formulate 0.1% Triton X-100 solution. <2> Formulation of sodium hydroxide solution (12 M): 4.8 g of sodium hydroxide solid was weighed, and added with deionized water to make up to 10 mL, and formulate 12 M sodium hydroxide solution. <1> After being thawed and cleaned, pig skin was fixed between a supply chamber and a receiving chamber of Franz cell, with stratum corneum of the skin facing the supply chamber, and a dermal side facing the receiving chamber. Into the receiving chamber, 7.0 mL of a receiving liquid was added. After suckling pig skin was stretched and fixed well, into the receiving chamber, 1.5 mL of the receiving liquid (PBS) was added through a sample collector, and air was exhausted, so as to make the dermis of the skin be in close contact with the receiving liquid. <2> Samples (as shown in TABLE 24) were added to the skin surface in the supply chamber, where 50 μL of the samples were added to the surface of the pig skin (a PBS buffer solution was added to the surface of the control group as blank control). The samples were evenly spread radially from a central part of the skin towards an edge, and an exposed area of the samples was 3.14 cm^2. Each sample had three parallel replicates. […] Keratinocytes in the cleaning solution were precipitated, supernatant was discarded, and precipitate was re-suspended with 0.5 mL of deionized water. <2> Into the re-suspended liquid, 25 μL of a sodium hydroxide (12 M) solution was added, the keratinocytes were lysed for 30 min in a boiling water bath, and 25 μL of concentrated hydrochloric acid (12 M) was added to neutralize lysis solution. <3> The total protein content was detected according to instructions of a BCA protein assay kit. […] The total protein content in the lysis solution was directly proportional to the quantity of detached keratinocytes. […] GraphPad Prism was applied for plotting, and results were expressed as Mean±SD. Comparison between the groups was statistically analyzed using t-test. […]

[2] = test system: CPD; assay: DNA damage repair on UVB-irradiated 3D epidermal skin model, CPD immunohistochemistry; format: cell-based; conditions: Filtrate 5%, Lysate 5%, Filtrate + lysate 5%, Retinol 0.1%, Bifida ferment lysate 5%; for CPD Positive cell Rate (%): BC 0.00%, NC 72.14%, smaller values are better; for CPD fluorescence intensity, Down-regulation Rate: vs NC
Description: <1> According to test groups, models were transferred into 6-well plates (added with 0.9 mL of an EpiGrowth culture solution of corresponding groups in advance), and numbers of the test groups were marked on the 6-well plates.
<2> UVB irradiation (a radiation dosage was 600 mJ/cm^2) was performed on the groups requiring UVB irradiation according to the test groups (as shown in TABLE 40). After the irradiation, a sample working solution was evenly distributed on surfaces of the models, and continued to be incubated in a CO2 incubator (37° C., 5% CO2) for 24 h.
<3> After incubation was finished, test substances remaining on surfaces of the models were cleaned with sterile PBS, and residual liquid inside and outside the models was wiped off with a sterile cotton swab.
The models for detection were fixed using 4% paraformaldehyde. After 24 h of fixation, immunohistochemical detection was performed, photographs were taken under a microscope and observed, and pictures were collected and analyzed.
Inhibition rate/down-regulation rate (%)=(negative control group−sample)/negative control group×100%
GraphPad Prism was applied for plotting, and results were expressed as Mean±SD. Comparison between the groups was statistically analyzed using t-test. Statistical analysis was two-tailed. P<0.05 is considered to have a significant difference, and P<0.01 is considered to have an extremely significant difference.
(1) CPD: When a body is exposed to exogenous UV radiation, DNA damage may occur, and this damage may induce body aging. If such DNA damage is not repaired in time, symptoms such as aging of the body may occur.

[3] = test system: 3D epidermal skin model (EpiKuits®); assay: Epidermal atrophy on UVB-irradiated 3D epidermal skin model, tissue morphology H&E, sunburn cells; format: cell-based; conditions: Filtrate 5%, Lysate 5%, Filtrate + lysate 5%, Retinol 0.1%, Bifida ferment lysate 5%; for Sunburn cells: EpiKutis 3D epidermal model, UVB 600 mJ/cm^2, then 24 h, H&E, BC 0, NC 10, WY14643 50 μM
Description: [table] <1> According to test groups, models were transferred into 6-well plates (added with 0.9 mL of an EpiGrowth culture solution of corresponding groups in advance), and numbers of the test groups were marked on the 6-well plates. <2> UVB irradiation (a radiation dosage was 600 mJ/cm^2) was performed on the groups requiring UVB irradiation according to the test groups (as shown in TABLE 40). […] <3> After incubation was finished, test substances remaining on surfaces of the models were cleaned with sterile PBS, and residual liquid inside and outside the models was wiped off with a sterile cotton swab. The models for detection of tissue morphology were fixed using 4% paraformaldehyde. After 24 h of fixation, H&E staining detection was performed, photographs were taken under a microscope and observed, and pictures were collected and analyzed. Inhibition rate/down-regulation rate (%)=(negative control group−sample)/negative control group×100% GraphPad Prism was applied for plotting, and results were expressed as Mean±SD. Comparison between the groups was statistically analyzed using t-test. Statistical analysis was two-tailed. P<0.05 is considered to have a significant difference, and P<0.01 is considered to have an extremely significant difference. (2) Epidermal atrophy: Tissue morphology is physiological structure analysis of appearance of tissues after HE staining. The ability of the test substance to resist UVB can be evaluated by analyzing thickness changes of epidermis and growth of four layers of cells on the surface after use of the test substance.

[4] = test system: collagen fiber; assay: Excised skin tissues, combined UVA and UVB irradiation: collagen fiber (Masson staining); conditions: ex vivo skin, 0.1%
Description: (§1) Tissue treatment: Freshly obtained skin tissues were immersed into 75% alcohol to be cleaned for 30 s, and then cleaned in a sterile PBS buffer solution for three times. After the cleaning was finished, the skin was cut into tissue blocks of 24±2 mm^2, with the epidermis facing upwards and the dermis facing downwards, and put into culture moulds; and then the culture moulds were transferred into 6-well plates, with each well being added with 3.7 mL of the culture solution, and cultured in the CO2 incubator (37° C., 5% CO2), with the solution being changed every day.
(§2) Dosing: After the excised skin tissues were cultured for 2 days, irradiation and dosing were started with reference to test groups and corresponding treatment conditions in the table. Irradiation dosages were UVA (30 J/cm^2) and UVB (50 mJ/cm^2). The irradiation was continuously performed for 4 days. […]
Detection of collagen fiber: the skin tissues having undergone the dosing were fixed using 4% paraformaldehyde. […] Slicing result was recovered, photographed using a microscope, and analyzed using Image-Pro Plus image processing software. […]
(§3) Statistical analysis of results: GraphPad Prism was applied for plotting, and results were expressed as Mean±SD. Comparison between the groups was statistically analyzed using t-test. […]

[5] = test system: hyaluronic acid; assay: Excised skin tissues, combined UVA and UVB irradiation: hyaluronic acid (immunofluorescence); conditions: ex vivo skin, 0.1%
Description: as §1
as §2, with “days. After each time of irradiation was completed, the culture solution was replaced with a fresh culture solution, and a dosing treatment was performed. The positive control (VC+VE) was dosed below a liquid surface, and the test sample was does on a surface, with each group being in triplicate.” for “days.”
as §3

[6] = test system: elastin; assay: Excised skin tissues, combined UVA and UVB irradiation: elastin (Victoria Blue staining); conditions: ex vivo skin, 0.1%
Description: as §1
as §2, with “days. After each time of irradiation was completed, the culture solution was replaced with a fresh culture solution, and a dosing treatment was performed. The positive control (VC+VE) was dosed below a liquid surface, and the test sample was does on a surface, with each group being in triplicate.” for “days.”
as §3

[7] = test system: type III collagen; assay: Excised skin tissues, combined UVA and UVB irradiation: type III collagen (IHC); conditions: ex vivo skin, 0.1%
Description: as §1
as §2, with “days. After each time of irradiation was completed, the culture solution was replaced with a fresh culture solution, and a dosing treatment was performed. The positive control (VC+VE) was dosed below a liquid surface, and the test sample was does on a surface, with each group being in triplicate.” for “days.”
as §3

[8] = test system: type IV collagen; assay: Excised skin tissues, combined UVA and UVB irradiation: type IV collagen (IHC); conditions: ex vivo skin, 0.1%
Description: as §1
as §2, with “days. After each time of irradiation was completed, the culture solution was replaced with a fresh culture solution, and a dosing treatment was performed. The positive control (VC+VE) was dosed below a liquid surface, and the test sample was does on a surface, with each group being in triplicate.” for “days.”
as §3

[9] = test system: type XVII collagen; assay: Excised skin tissues, combined UVA and UVB irradiation: type XVII collagen (IHC); conditions: ex vivo skin, 0.1%
Description: as §1
as §2, with “days. After each time of irradiation was completed, the culture solution was replaced with a fresh culture solution, and a dosing treatment was performed. The positive control (VC+VE) was dosed below a liquid surface, and the test sample was does on a surface, with each group being in triplicate.” for “days.”
as §3

[10] = BC 0.326, Filtrate 3%, Mandelic acid 5%, Salicylic acid 2%
[11] = 30 J/cm^2 UVA + 50 mJ/cm^2 UVB, IHC

O=C(O)C(O)c1ccccc1 (centres unmarked) [Mandelic acid]
Protein Concentration Mean (exfoliated keratinocytes) [1, 10]: 0.448 mg/mL

CC1=C(/C=C/C(C)=C/C=C/C(C)=C/CO)C(C)(C)CCC1 [Retinol]
CPD Positive cell Rate (%) ([2]; EpiKutis 3D epidermal model, UVB 600 mJ/cm^2, then 24 h, PC WY14643 50 μM): 58.31%
CPD Positive cell Rate (%) ([2]; EpiKutis 3D epidermal model, UVB 600 mJ/cm^2, then 24 h, PC WY14643 50 μM, listed as retinol): 58.31%
CPD fluorescence intensity, IOD Mean ([2]; EpiKutis 3D epidermal model, UVB 600 mJ/cm^2, then 24 h, NC 227349.69, PC WY14643 50 μM): 20503.43
CPD fluorescence intensity, Down-regulation Rate [2]: 90.98%
CPD fluorescence intensity, Down-regulation Rate ([2]; listed as retinol): 90.98%
Sunburn cells [3]: 0
Sunburn cells, Inhibition Rate ([3]; vs NC): 100%
Collagen fiber Relative Area Mean ([4]; 30 J/cm^2 UVA + 50 mJ/cm^2 UVB, Masson staining): 0.96
Collagen fiber Increase Rate ([4]; UVA + UVB, vs negative control): 50.00%
Hyaluronic acid Relative IOD Mean ([5]; 30 J/cm^2 UVA + 50 mJ/cm^2 UVB, IF): 0.69
Hyaluronic acid Increase Rate ([5]; UVA + UVB, vs negative control): 56.82%
Elastin Relative IOD Mean ([6]; 30 J/cm^2 UVA + 50 mJ/cm^2 UVB, Victoria staining): 1.19
Elastin Increase Rate ([6]; UVA + UVB, vs negative control): 260.61%
Type III collagen Relative IOD Mean [7, 11]: 0.76
Type III collagen Increase Rate ([7]; UVA + UVB, vs negative control): 28.81%
Type IV collagen Relative IOD/area Mean [8, 11]: 0.76
Type IV collagen Increase Rate ([8]; UVA + UVB, vs negative control): 26.67%
Type XVII collagen Relative IOD Mean [9, 11]: 0.69
Type XVII collagen Increase Rate ([9]; UVA + UVB, vs negative control): 176.00%

Cc1cccc(Nc2cc(Cl)nc(SCC(=O)O)n2)c1C [WY14643]
Sunburn cells [3]: 3

O=C(O)c1ccccc1O [salicylic acid]
Protein Concentration Mean (exfoliated keratinocytes) [1, 10]: 0.347 mg/mL
Protein Concentration Mean (exfoliated keratinocytes) ([1]; BC 0.326, PC 10% salicylic acid): 0.555 mg/mL
